Test results published in ChEMBL document CHEMBL1139242, “Peptide deformylase inhibitors of Mycobacterium tuberculosis: synthesis, structural investigations, and biological results” (Bioorg Med Chem Lett, 2008).
In brackets after ≈: the same amount, converted by molar mass.

What follows are molecules tested on Mycobacterium tuberculosis (assay: Antitubercular activity against Mycobacterium tuberculosis H37Rv after 14 days by turbidimetric assay). Settings: 336 h.
Assay type: functional

In order of falling MIC:
1. O=CN(O)C[C@@H](CC1CC1)C(=O)N1CCC[C@H]1c1nc2ccccc2o1  0.2 µg/mL (≈ 0.56 µM)
2. CCCC[C@H](CN(O)C=O)C(=O)N1CCC[C@H]1C(=O)Nc1ccccn1  0.2 µg/mL (≈ 0.552 µM)
3. CCCC[C@H](CN(O)C=O)C(=O)N1CCC[C@H]1c1nc2ccccc2o1  0.15 µg/mL (≈ 0.417 µM)
4. CCCC[C@H](CN(O)C=O)C(=O)N1CCC[C@H]1c1nc2ccccc2[nH]1  0.1 µg/mL (≈ 0.279 µM)
5. COc1c(N2CCNC(C)C2)c(F)cc2c(=O)c(C(=O)O)cn(C3CC3)c12 (centres undefined) [GATIFLOXACIN]  0.07 µg/mL (≈ 0.186 µM)
6. O=CN(O)C[C@@H](CC1CC1)C(=O)N1CCC[C@H]1c1nc2ccccc2[nH]1  0.05 µg/mL (≈ 0.14 µM)

These molecules were tested against T1, Peptide deformylase (Mycobacterium tuberculosis, UniProt P9WIJ3) (assay: Inhibition of Mycobacterium tuberculosis peptide deformylase expressed in Escherichia coli M15(pREp4) by microplate assay). Settings: not given.
T1 sequence (P9WIJ3 whole entry): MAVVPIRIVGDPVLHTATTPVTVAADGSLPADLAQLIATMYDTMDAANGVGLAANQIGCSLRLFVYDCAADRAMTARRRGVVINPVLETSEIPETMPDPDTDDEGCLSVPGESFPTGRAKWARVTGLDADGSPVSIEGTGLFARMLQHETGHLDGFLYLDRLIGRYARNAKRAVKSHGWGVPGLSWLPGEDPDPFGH

In order of falling IC50:
1. CCCC[C@H](CC(=O)O)C(=O)N1CCC[C@H]1c1nc2ccccc2o1  803 nM
2. CCCC[C@H](CC(=O)O)C(=O)N1CCC[C@H]1c1nc2ccccc2[nH]1  202 nM
3. O=CN(O)C[C@@H](Cc1ccccc1)C(=O)N1CCC[C@H]1c1nc2ccccc2o1  161 nM
4. O=CN(O)C[C@@H](Cc1ccccc1)C(=O)N1CCC[C@H]1c1nc2ccccc2[nH]1  68 nM
5. CCCC[C@H](C(=O)NO)C(=O)N1CCC[C@H]1c1nc2ccccc2o1  49 nM
6. CCC[C@H](CN(O)C=O)C(=O)N1CCC[C@H]1c1nc2ccccc2o1  28 nM
7. CCC[C@H](CN(O)C=O)C(=O)N1CCC[C@H]1c1nc2ccccc2[nH]1  24 nM
8. O=CN(O)C[C@@H](CC1CC1)C(=O)N1CCC[C@H]1c1nc2ccccc2o1  21 nM
9. CCCC[C@H](C(=O)NO)C(=O)N1CCC[C@H]1c1nc2ccccc2[nH]1  18 nM
10. CCCCC[C@H](CN(O)C=O)C(=O)N1CCC[C@H]1c1nc2ccccc2[nH]1  15 nM
11. CCCCC[C@H](CN(O)C=O)C(=O)N1CCC[C@H]1c1nc2ccccc2o1  13 nM
12. CCCC[C@H](CN(O)C=O)C(=O)N1CCC[C@H]1c1nc2ccccc2[nH]1  10 nM
13. O=CN(O)C[C@@H](CC1CC1)C(=O)N1CCC[C@H]1c1nc2ccccc2[nH]1  8 nM
